# From patent publication US20080213377A1, “Delivery of Nanoparticles and/or Agents to Cells” (priority 2006, published 2008)
# No end group written: not given here.
# Experiments:
# Glioblastoma cells = assay: Photoactivation of endosomal escape in glioblastoma cells; type: cell-based
# Experimental: Fluorescein labeled CAR peptide ([…]) was synthesized using an ABI Model 433A peptide synthesizer from Biopolymers Laboratory, the MIT Center for Cancer Research. The peptide was cyclized by bubbling air into an aqueous solution of the peptide at 0.1 mg/ml overnight. Complete cyclization was confirmed by mass spectrometry and HPLC analysis.
# Glioblastoma cells were obtained from the laboratory of Phil Sharp (MIT). The cyclized peptide (cCAR) was incubated with cells for 2 hours at 37° C. in complete culture medium (DMEM supplemented with serum, streptomycin, penicillin and fungizone). A monolayer of the cells was then rinsed with warm media three times. Microscopy photographs were taken after overnight incubation of the cells. For activation of photosensitizer, Arc lamp light from a microscope was irradiated onto the cells for two minutes.
# [1] = system: Free MMP-2 cleavable peptide substrate NH2-G-K(TAMRA)-G-P-L-G-V-R-G-C-CONH2
# [2] = system: Peptide-PEG (MMP-2 cleavable L-AA substrate coupled to 10 kDa PEG) immobilized on dextran-coated iron oxide nanoparticles
# [3] = biological target: Nucleolin on the surface of HeLa cells (UniProt P19338); assay: cell-based or functional assay
# Sequence of Nucleolin on the surface of HeLa cells (P19338 2-710 limits assumed): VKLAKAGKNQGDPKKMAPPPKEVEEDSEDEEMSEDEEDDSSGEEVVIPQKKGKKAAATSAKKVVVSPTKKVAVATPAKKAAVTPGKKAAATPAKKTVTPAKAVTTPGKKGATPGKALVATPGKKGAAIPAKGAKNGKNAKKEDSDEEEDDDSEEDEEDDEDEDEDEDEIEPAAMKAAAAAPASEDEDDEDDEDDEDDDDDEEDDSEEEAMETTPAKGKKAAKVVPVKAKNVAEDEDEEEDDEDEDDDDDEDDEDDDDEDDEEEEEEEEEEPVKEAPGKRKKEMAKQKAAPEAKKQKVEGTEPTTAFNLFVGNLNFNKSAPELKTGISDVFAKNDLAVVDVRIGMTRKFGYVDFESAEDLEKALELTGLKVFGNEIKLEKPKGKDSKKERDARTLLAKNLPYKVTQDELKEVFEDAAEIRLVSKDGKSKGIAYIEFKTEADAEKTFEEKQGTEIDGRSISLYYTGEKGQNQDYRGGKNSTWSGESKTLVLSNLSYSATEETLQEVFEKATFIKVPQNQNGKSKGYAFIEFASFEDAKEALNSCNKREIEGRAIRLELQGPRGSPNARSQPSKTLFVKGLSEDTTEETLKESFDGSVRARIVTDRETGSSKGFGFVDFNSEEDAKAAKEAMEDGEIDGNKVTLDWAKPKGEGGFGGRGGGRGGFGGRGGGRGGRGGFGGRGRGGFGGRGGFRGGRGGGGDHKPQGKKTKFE
# [4] = system: collagenase (Clostridiopeptidase A); assay: Protease activation of nanoparticles (TAMRA dequenching), collagenase; type: biochemical; settings: 25 μM; collagenase 20 μg/ml
# Recombinant MMP-2 = biological target: T1, Recombinant MMP-2 (Homo sapiens, UniProt P08253); assay: Protease activation of nanoparticles (TAMRA dequenching), MMP-2; settings: 25 μM; MMP-2 2.5 μg/ml
# T1 sequence (P08253 110-660): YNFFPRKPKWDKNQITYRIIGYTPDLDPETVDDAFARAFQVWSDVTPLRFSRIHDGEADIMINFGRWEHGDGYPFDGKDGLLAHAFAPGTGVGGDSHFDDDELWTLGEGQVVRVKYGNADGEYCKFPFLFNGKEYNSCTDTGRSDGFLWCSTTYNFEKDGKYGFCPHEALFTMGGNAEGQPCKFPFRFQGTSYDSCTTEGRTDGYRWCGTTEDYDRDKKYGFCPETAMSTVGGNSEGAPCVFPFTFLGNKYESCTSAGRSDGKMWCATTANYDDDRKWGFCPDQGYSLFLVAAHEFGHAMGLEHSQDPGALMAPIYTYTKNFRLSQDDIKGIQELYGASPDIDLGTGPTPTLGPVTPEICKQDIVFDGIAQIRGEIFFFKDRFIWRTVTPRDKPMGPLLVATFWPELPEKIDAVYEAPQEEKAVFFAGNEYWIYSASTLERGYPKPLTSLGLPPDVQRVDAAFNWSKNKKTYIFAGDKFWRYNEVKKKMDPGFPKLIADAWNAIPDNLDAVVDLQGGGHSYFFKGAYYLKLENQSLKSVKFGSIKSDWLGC
# Source text: Activation was monitored by the release of TAMRA quenching at an excitation of 515 nm and emission of 580 nm.
# HeLa cells = assay: QD internalization in HeLa cell monolayers, flow cytometry (Example 8); type: cell-based; settings: free peptide 1 μM to 1 mM added with 50 nM F3-QDs
# Source text: After four hours, cells were washed with media, treated with trypsin (0.25%) and EDTA, and resuspended in 1% BSA (in PBS) for flow cytometry (BD FACSort, FL1 for EGFP signal and FL3 for QD signal). Fluorescence data on 10,000 cells were collected for each sample and the geometric mean of intensity was reported.
compound,measurement,setting,value
"cyclic CAR peptide: Fluorescein labeled, cyclized CAR peptide (CARSKNKDC), binds heparan sulfate proteoglycans (also: fluorescein label, position not given here, cyclized, bond type not given here)",internalization into cells,"Glioblastoma cells; 2 hours at 37° C., without light irradiation",internalized
same,endosomal escape upon light irradiation,Glioblastoma cells; Arc lamp light irradiation,distributed evenly inside cells
Recombinant MMP-2,"Kcat/Km (cleavage of the substrate by MMP-2 over time, fluorescamine assay)",[1],8.42 and 26.7 µM^-1 hr^-1 respectively
same,"Kcat/Km (cleavage of the substrate by MMP-2 over time, TAMRA dequenching)",[2],8.42 and 26.7 µM^-1 hr^-1 respectively
same,fold reduction of MMP-2 Kcat/Km against the free peptide,[2],"reduces its associated MMP-2 Kcat/Km within a practical range, 3.2 fold"
F3-QD (F3 peptide C[Ahx]… conjugated to PEG-amino quantum dots),QD uptake by HeLa cells (flow cytometry) (orders of magnitude),[3],2
CNC(=O)[C@H](Cc1c[nH]c2ccccc12)NC(=O)[C@@H](CC(=O)NO)CC(C)C [Galardin],inhibition of nanoparticle activation (peptide-PEG cleavage),[4],inhibits activation
same,inhibition of nanoparticle activation (peptide-PEG cleavage),Recombinant MMP-2,inhibits activation
Lys-Ala-Arg-Glu-Cys (KAREC; printed: Lys-Ala-Arg-Glu-Cys) [KAREC peptide],inhibition of F3-QD uptake by free peptide,HeLa cells,minimal
